From ChEMBL document CHEMBL1201862, “PubChem BioAssay data set” (2004)
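Assay format: 96-well plates, 48-hour exposure. At the GI50, growth is halved.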 The source made the active and inactive calls. Cut-off read from the data, not from the text of the source: active = GI50 up to about 1.1 µM and inactive = higher.

Columns and labels:
Assay in all cases: NCI anticancer screen, dose series, 48 h
A549 = test system: A549
SF-295 = test system: SF-295
MCF7 = test system: MCF7
786-0 = test system: 786-0
OVCAR-4 = test system: OVCAR-4
OVCAR-3 = test system: OVCAR-3
CCRF-CEM = test system: CCRF-CEM
SNB-19 = test system: SNB-19
SN12C = test system: SN12C
PC-3 = test system: PC-3
DU-145 = test system: DU-145
U-251 = test system: U-251
HCT-116 = test system: HCT-116
HL-60 = test system: HL-60
SK-OV-3 = test system: SK-OV-3
BT-549 = test system: BT-549
SF-268 = test system: SF-268
IGROV-1 = test system: IGROV-1
ACHN = test system: ACHN
SW-620 = test system: SW-620

Measured: GI50

O/N=C\c1c2c(cc3c1CCC3)CCC2
inactive: A549 > 100 µM | SF-295 > 100 µM | MCF7 > 100 µM | 786-0 > 100 µM | OVCAR-4 > 100 µM | OVCAR-3 > 100 µM | CCRF-CEM > 100 µM | SNB-19 > 100 µM | SN12C > 100 µM | PC-3 > 100 µM | DU-145 > 100 µM | U-251 > 100 µM | HCT-116 > 100 µM | HL-60 > 100 µM | SK-OV-3 > 100 µM | BT-549 > 100 µM | SF-268 > 100 µM | IGROV-1 > 100 µM | ACHN > 100 µM | SW-620 > 100 µM

COc1oc(C(=O)NC2CCCCC2)c(-c2ccc(Cl)cc2)c1S(=O)(=O)c1ccccc1
inactive: A549 23.7 µM | SF-295 23.4 µM | MCF7 36.1 µM | 786-0 1.99 µM | OVCAR-4 1.7 µM | OVCAR-3 1.89 µM | CCRF-CEM 2.2 µM | SNB-19 99.3 µM | SN12C 20.1 µM | PC-3 10.7 µM | DU-145 18.3 µM | U-251 2.64 µM | HCT-116 33.3 µM | HL-60 2.4 µM | SK-OV-3 25.6 µM | BT-549 5.55 µM | SF-268 3.46 µM | IGROV-1 1.82 µM | ACHN 31 µM | SW-620 38.2 µM

CC(C)(Cc1ccccc1)Cc1cc(O)ccc1O
inactive: A549 23.7 µM | SF-295 18 µM | MCF7 23.4 µM | 786-0 12.7 µM | OVCAR-4 16.4 µM | OVCAR-3 11.8 µM | CCRF-CEM 4.49 µM | SNB-19 17.7 µM | SN12C 16.7 µM | PC-3 22.2 µM | DU-145 23.1 µM | U-251 15.2 µM | HCT-116 15.8 µM | HL-60 2.22 µM | SK-OV-3 24.7 µM | BT-549 16.3 µM | SF-268 13.9 µM | IGROV-1 26.9 µM | ACHN 20.8 µM | SW-620 22.6 µM

NC(=O)c1nnc2cc(F)ccc2c1N
inactive: A549 > 100 µM | SF-295 > 100 µM | MCF7 > 100 µM | 786-0 > 100 µM | OVCAR-4 > 100 µM | OVCAR-3 > 100 µM | CCRF-CEM > 100 µM | SNB-19 > 100 µM | SN12C > 100 µM | PC-3 > 100 µM | DU-145 > 100 µM | U-251 > 100 µM | HCT-116 > 100 µM | HL-60 > 100 µM | SK-OV-3 85.5 µM | BT-549 84.9 µM | SF-268 > 100 µM | IGROV-1 > 100 µM | ACHN 80.4 µM | SW-620 > 100 µM

CC(C)Cn1cnc2c(Cl)nc3ccccc3c21
inactive: A549 59.4 µM | SF-295 72.6 µM | MCF7 47.9 µM | 786-0 80.2 µM | OVCAR-4 48.3 µM | OVCAR-3 41.3 µM | CCRF-CEM 53.2 µM | SNB-19 > 100 µM | SN12C 70.6 µM | PC-3 34.4 µM | DU-145 73.8 µM | U-251 65.9 µM | HCT-116 34.4 µM | HL-60 26.7 µM | SK-OV-3 > 100 µM | BT-549 51.5 µM | SF-268 57.3 µM | IGROV-1 31.9 µM | ACHN 30.2 µM | SW-620 47.3 µM

O=C1/C(=C/c2ccc(Cl)cc2)N=C(c2ccccc2)N1c1nc2c(Cl)cc(Cl)cc2s1
inactive: A549 24.5 µM | SF-295 30.6 µM | MCF7 23.9 µM | 786-0 31.8 µM | OVCAR-4 30.9 µM | OVCAR-3 19.8 µM | CCRF-CEM 3.45 µM | SNB-19 34.8 µM | SN12C 23.1 µM | PC-3 18.5 µM | DU-145 33.7 µM | U-251 19.7 µM | HCT-116 20 µM | HL-60 17.3 µM | SK-OV-3 28.1 µM | BT-549 28.5 µM | SF-268 43.9 µM | IGROV-1 32.4 µM | ACHN 31.7 µM | SW-620 30.7 µM

CCOC(=O)/C=C(/C(=O)OCC)n1ccc(N)nc1=O
inactive: A549 > 100 µM | SF-295 > 100 µM | MCF7 > 100 µM | 786-0 > 100 µM | OVCAR-4 56 µM | OVCAR-3 > 100 µM | CCRF-CEM 25.5 µM | SNB-19 > 100 µM | SN12C > 100 µM | PC-3 > 100 µM | DU-145 > 100 µM | U-251 > 100 µM | HCT-116 > 100 µM | HL-60 70.6 µM | SK-OV-3 > 100 µM | BT-549 61.4 µM | SF-268 > 100 µM | IGROV-1 > 100 µM | ACHN > 100 µM | SW-620 72.3 µM
